For assay [1], the target named is T1, human GLP-1 receptor (hGLP-1R) (Homo sapiens, UniProt P43220).
T1 construct: expressed in transfected cells; crude membranes
The experiment in a line: [125I]-GLP-1 binding, SPA with membranes of HEK293 cells expressing hGLP-1R. The note with it: human GLP-1R; geometric mean (SEM, n); read-out: Binding Affinity Ki, nM (SEM, n) hGLP-1R.

In assay [2] the target is T2, human GIP receptor (hGIPR) (Homo sapiens, UniProt P48546).
T2 construct: expressed in transfected cells; crude membranes
T2 sequence (P48546 22-466): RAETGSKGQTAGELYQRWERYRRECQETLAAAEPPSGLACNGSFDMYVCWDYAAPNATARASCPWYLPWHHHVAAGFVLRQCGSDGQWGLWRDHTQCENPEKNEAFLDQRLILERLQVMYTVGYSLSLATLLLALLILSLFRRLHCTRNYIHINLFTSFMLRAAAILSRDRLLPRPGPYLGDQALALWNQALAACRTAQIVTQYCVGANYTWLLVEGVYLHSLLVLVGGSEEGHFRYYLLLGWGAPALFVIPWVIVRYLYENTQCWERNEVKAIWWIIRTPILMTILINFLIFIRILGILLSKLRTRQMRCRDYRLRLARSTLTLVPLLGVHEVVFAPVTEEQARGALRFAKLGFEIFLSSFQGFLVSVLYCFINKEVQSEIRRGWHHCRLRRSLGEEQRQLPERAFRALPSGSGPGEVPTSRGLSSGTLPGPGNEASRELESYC
The experiment in a line: [125I]-GIP binding, SPA with membranes of CHO cells expressing hGIPR. To be noted: human GIPR; geometric mean (SEM, n); read-out: Binding Affinity Ki, nM (SEM, n) hGIPR.

The target of assay [3] is T3, hGIPR (Homo sapiens, UniProt P48546).
T3 construct: expressed in transfected cells
T3 sequence (P48546 22-466): T2 sequence (P48546 22-466)
The assay can be described thus: Functional cAMP formation (HTRF) in HEK-293 clonal cells expressing hGIPR, 0.1% bovine casein, without or with 1.0% human serum albumin. It is filed as cell-based. The note with it: 37° C.; for Emax: HEK293, cAMP, percent of maximal response to GIP(1-42)NH2, read-out: hGIPR Emax, % ± SEM; for EC50: cAMP, read-out: hGIPR EC50, nM (SEM, n). A digest of the protocol: (§1)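 Cells were stimulated with peptide for 30 min at 37° C, then lysed in buffer carrying cAMP-d2 and anti-cAMP Eu3+-cryptate for a competitive HTRF read after at least 60 min at room temperature. The 665/620 nm ratio was converted to nM cAMP against a standard curve.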
For orientation: Cyclic AMP is a second messenger, typically raised through Gs and lowered through Gi signalling.

Assay [4] deals with T4, hGCGR (Homo sapiens, UniProt P47871).
T4 construct: expressed in transfected cells
T4 sequence (P47871 26-477): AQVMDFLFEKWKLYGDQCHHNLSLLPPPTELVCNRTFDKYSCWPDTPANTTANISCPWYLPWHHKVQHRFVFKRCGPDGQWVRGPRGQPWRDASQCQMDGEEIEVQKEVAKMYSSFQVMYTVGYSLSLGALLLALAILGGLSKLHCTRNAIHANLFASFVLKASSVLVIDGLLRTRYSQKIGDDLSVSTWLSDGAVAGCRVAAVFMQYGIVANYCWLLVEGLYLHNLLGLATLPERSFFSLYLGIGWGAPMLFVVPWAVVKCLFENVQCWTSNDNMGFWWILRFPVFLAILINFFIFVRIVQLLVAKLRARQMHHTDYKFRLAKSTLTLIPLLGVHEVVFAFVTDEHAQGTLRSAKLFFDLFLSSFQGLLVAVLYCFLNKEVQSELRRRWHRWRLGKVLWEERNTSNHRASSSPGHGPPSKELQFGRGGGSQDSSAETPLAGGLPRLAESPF
The assay can be described thus: Functional cAMP formation (HTRF) in HEK-293 clonal cells expressing hGCGR, 0.1% bovine casein, without or with 1.0% human serum albumin. Format: cell-based. To be noted: cAMP, 37° C., read-out: hGCGR EC50, nM (SEM, n). In a few lines: as §1

Assay [5] concerns the target hGLP-1R (Homo sapiens, UniProt P43220). The assay can be described thus: Functional cAMP formation (HTRF) in HEK-293 clonal cells expressing hGLP-1R, 0.1% bovine casein, without or with 1.0% human serum albumin. Format: cell-based. On the set-up: expressed in transfected cells. The note with it: 37° C.; for Emax: HEK293, cAMP, percent of maximal response to GLP-1(7-36)NH2, read-out: hGLP-1R Emax, % ± SEM; for EC50: cAMP, 0.1% bovine casein (no human serum albumin), geometric mean, read-out: hGLP-1R EC50, nM (SEM, n). In a few lines:
as §1

The mark [6] stands for this setting: 0.1% bovine casein and 1.0% human serum albumin.
Where [7] appears, read: 0.1% bovine casein (no human serum albumin), geometric mean.
Setting [8] is: 0.1% bovine casein and 1.0% human serum albumin, geometric mean (SEM, n).
The mark [9] stands for this setting: 0.1% bovine casein, arithmetic mean.

The results in this text go back to patent US20230265151A1, “GIP/GLP1 CO-AGONIST COMPOUNDS” (priority 2020, published 2023).

What is called Ki is the dissociation constant of the complex between target and ligand, obtained from inhibition or displacement. For orientation: Emax means the greatest response seen or fitted, relative to the assay's reference. What is called EC50 is the concentration at which the effect is half-maximal.

Like-named read-outs stand apart in the source and are kept apart here.

Chain of hGLP-1R (P43220 24-463): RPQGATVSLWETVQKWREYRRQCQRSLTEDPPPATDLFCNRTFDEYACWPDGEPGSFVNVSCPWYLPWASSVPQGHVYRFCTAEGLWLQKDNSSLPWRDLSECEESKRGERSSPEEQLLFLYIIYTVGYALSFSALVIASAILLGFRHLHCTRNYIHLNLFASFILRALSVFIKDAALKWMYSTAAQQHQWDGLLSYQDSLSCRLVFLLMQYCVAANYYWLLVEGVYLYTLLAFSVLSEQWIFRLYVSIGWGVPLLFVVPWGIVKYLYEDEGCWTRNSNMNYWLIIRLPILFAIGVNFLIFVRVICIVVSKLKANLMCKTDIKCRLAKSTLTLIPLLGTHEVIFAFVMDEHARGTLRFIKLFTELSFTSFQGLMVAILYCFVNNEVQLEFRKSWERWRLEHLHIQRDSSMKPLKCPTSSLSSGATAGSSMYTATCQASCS
T1 sequence (P43220 24-463): as above

On to `CCCCCCCCCCCC(=O)N[C@@H](CCC(=O)NCCOCCOCC(=O)NCCOCCOCC(=O)NCCCC[C@H](NC(=O)[C@H](CCCN)NC(=O)[C@H](CC(=O)O)NC(=O)[C@H](CC(C)C)NC(=O)[C@](C)(CC(C)C)NC(=O)[C@@H](NC(=O)C(C)(C)NC(=O)[C@H](Cc1ccncc1)NC(=O)[C@H](CC(=O)O)NC(=O)[C@H](CO)NC(=O)[C@@H](NC(=O)[C@](C)(Cc1ccccc1F)NC(=O)[C@@H](NC(=O)CNC(=O)[C@H](CCC(=O)O)NC(=O)C(C)(C)NC(=O)[C@@H](N)Cc1ccc(O)cc1)[C@@H](C)O)[C@@H](C)O)[C@@H](C)CC)C(=O)N[C@@H](C)C(=O)N[C@@H](CCC(N)=O)C(=O)NC(C)(C)C(=O)N[C@H](C(=O)N[C@@H](Cc1ccccc1)C(=O)N[C@H](C(=O)N[C@H](CCC(=O)O)C(=O)N[C@@](C)(Cc1ccc(O)cc1)C(=O)N[C@@H](CC(C)C)C(=O)N[C@H](C(=O)N[C@@H](CCCCNC(=O)COCCOCCNC(=O)COCCOCCNC(=O)CC[C@H](NC(=O)CCCCCCCCCCC)C(=O)O)C(=O)NCC(=O)NCC(=O)N1CCC[C@H]1C(=O)N[C@@H](CO)C(=O)N[C@@H](CO)C(=O)NCC(=O)N[C@@H](C)C(=O)N1CCC[C@H]1C(=O)N1CCC[C@H]1C(=O)N1CCC[C@H]1C(=O)N[C@@H](CO)C(N)=O)[C@@H](C)CC)[C@@H](C)CC)[C@@H](C)O)C(=O)O` [Example 419], for which the inhibitory constant (Ki) in assay [1] came to 0.265 nM; in assay [2], 0.0166 nM. Moreover, the maximal response (Emax) in assay [3] (setting [6]) came to 88.2%; in assay [5] (setting [6]), 97.3%; in assay [5] (setting [9]), 113%. The half-maximal effective concentration (EC50) in assay [3] (setting [7]) was 0.00958 nM; in assay [3] (setting [8]), 0.44 nM; in assay [4] (setting [7]), > 9950 nM; in assay [4] (setting [8]) it was > 9950 nM; in assay [5], 0.132 nM.
Regarding `CC[C@H](C)[C@H](NC(=O)[C@H](CC(C)C)NC(=O)[C@](C)(Cc1ccc(O)cc1)NC(=O)[C@H](CCCCNC(=O)CCOCCOCCOCCOCCOCCOCCNC(=O)CC[C@H](NC(=O)CCCCCCCCCCCCC(=O)O)C(=O)O)NC(=O)[C@@H](NC(=O)[C@H](Cc1ccccc1)NC(=O)[C@H](CCCN)NC(=O)C(C)(C)NC(=O)[C@H](CCC(N)=O)NC(=O)[C@H](C)NC(=O)[C@H](CCC(N)=O)NC(=O)[C@H](CCCN)NC(=O)[C@H](CC(=O)O)NC(=O)[C@H](CC(C)C)NC(=O)[C@](C)(CC(C)C)NC(=O)[C@@H](NC(=O)C(C)(C)NC(=O)[C@H](Cc1ccncc1)NC(=O)[C@H](CC(=O)O)NC(=O)[C@H](CO)NC(=O)[C@@H](NC(=O)[C@](C)(Cc1ccccc1F)NC(=O)[C@@H](NC(=O)CNC(=O)[C@H](CCC(=O)O)NC(=O)C(C)(C)NC(=O)[C@@H](N)Cc1ccc(O)cc1)[C@@H](C)O)[C@@H](C)O)[C@@H](C)CC)[C@@H](C)CC)C(=O)N[C@@H](CCCCNC(=O)CCOCCOCCOCCOCCOCCOCCNC(=O)CC[C@H](NC(=O)CCCCCCCCCCCCC(=O)O)C(=O)O)C(=O)NCC(=O)NCC(=O)N1CCC[C@H]1C(=O)N[C@@H](CO)C(=O)N[C@@H](CO)C(=O)NCC(=O)N[C@@H](C)C(=O)N1CCC[C@H]1C(=O)N1CCC[C@H]1C(=O)N1CCC[C@H]1C(=O)N[C@@H](CO)C(N)=O` [Example 466], the Ki in assay [1] turned out to be 0.2 nM; in assay [2] it was 0.0199 nM. Also, the Emax turned out to be 93.4% in assay [3] (setting [6]), 98.8% in assay [3] (setting [9]) and 105% in assay [5] (setting [9]). The EC50 is 0.00971 nM in assay [3] (setting [7]), > 10100 nM in assay [4] (setting [7]), > 10100 nM in assay [4] (setting [8]) and 0.156 nM in assay [5].
